For experiment [1], the target named is T1, kinases of the scanMAX Kinase assay panel (Homo sapiens, UniProt P00533, L861Q).
T1 construct: purchased DiscoverX Co. (contract measurement) scanMAX Kinase assay panel
Briefly: Kinase selectivity, DiscoverX scanMAX Kinase assay panel (% control). The experiment is classed as binding. The note with it: EGFR(L861Q); 1 uM. As to the method: (§1) The following experiment was performed to evaluate the activity of the compounds of the present invention to inhibit many enzymes.
(§2) Particularly, the compounds of Examples 8, 64 and 104 were selected among all of those compounds of the invention. DiscoverX Co. was asked to measure the enzyme (kinase) selectivity, and the experiment was performed using scanMAX™ Kinase assay panel.
(§3) Wherein, the concentration of the drug treated to each enzyme was 1 uM in DMSO and the control percentage (% control) was determined by the following Equation 1. (example compound−positive control)/(negative control−positive control)×100 [Equation 1]
(§4) Herein, the positive control indicates the compound showing the % control of 0%, and the negative control indicates DMSO showing the % control of 100%. The enzyme selectivity in the present invention is defined as follows: When the % control for each enzyme is less than 35% (<35%), it is judged that the compound has the activity to the corresponding enzyme.

Experiment [2] has as its target T2, kinases of the scanMAX Kinase assay panel (Homo sapiens, UniProt P15735).
T2 construct: purchased DiscoverX Co. (contract measurement) scanMAX Kinase assay panel
T2 sequence (P15735 1-406): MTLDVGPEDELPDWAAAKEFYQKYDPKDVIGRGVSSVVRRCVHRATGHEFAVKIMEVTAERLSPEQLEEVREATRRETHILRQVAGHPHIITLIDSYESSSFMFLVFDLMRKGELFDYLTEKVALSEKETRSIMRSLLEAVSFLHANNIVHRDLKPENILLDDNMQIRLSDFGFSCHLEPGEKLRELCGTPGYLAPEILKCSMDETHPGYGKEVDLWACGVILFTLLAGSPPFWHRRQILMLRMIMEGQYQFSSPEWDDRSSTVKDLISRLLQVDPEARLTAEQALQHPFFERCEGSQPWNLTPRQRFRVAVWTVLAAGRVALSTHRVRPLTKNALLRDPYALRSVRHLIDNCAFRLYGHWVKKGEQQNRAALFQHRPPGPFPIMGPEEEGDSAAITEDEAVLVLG
The description is as above. The following applies: PHKG2; 1 uM. The experiment is classed as binding. As to the method:
as §1, §2, §3, §4

For experiment [3], the target named is T3, kinases of the scanMAX Kinase assay panel (Homo sapiens, UniProt Q2M2I8).
T3 construct: purchased DiscoverX Co. (contract measurement) scanMAX Kinase assay panel
The experiment is described as above. The following applies: AAK1; 1 uM. The class given is binding. As to the method:
as §1, §2, §3, §4

The target of experiment [4] is T4, kinases of the scanMAX Kinase assay panel (Homo sapiens, UniProt Q9P0L2).
T4 construct: purchased DiscoverX Co. (contract measurement) scanMAX Kinase assay panel
T4 sequence (Q9P0L2 whole entry): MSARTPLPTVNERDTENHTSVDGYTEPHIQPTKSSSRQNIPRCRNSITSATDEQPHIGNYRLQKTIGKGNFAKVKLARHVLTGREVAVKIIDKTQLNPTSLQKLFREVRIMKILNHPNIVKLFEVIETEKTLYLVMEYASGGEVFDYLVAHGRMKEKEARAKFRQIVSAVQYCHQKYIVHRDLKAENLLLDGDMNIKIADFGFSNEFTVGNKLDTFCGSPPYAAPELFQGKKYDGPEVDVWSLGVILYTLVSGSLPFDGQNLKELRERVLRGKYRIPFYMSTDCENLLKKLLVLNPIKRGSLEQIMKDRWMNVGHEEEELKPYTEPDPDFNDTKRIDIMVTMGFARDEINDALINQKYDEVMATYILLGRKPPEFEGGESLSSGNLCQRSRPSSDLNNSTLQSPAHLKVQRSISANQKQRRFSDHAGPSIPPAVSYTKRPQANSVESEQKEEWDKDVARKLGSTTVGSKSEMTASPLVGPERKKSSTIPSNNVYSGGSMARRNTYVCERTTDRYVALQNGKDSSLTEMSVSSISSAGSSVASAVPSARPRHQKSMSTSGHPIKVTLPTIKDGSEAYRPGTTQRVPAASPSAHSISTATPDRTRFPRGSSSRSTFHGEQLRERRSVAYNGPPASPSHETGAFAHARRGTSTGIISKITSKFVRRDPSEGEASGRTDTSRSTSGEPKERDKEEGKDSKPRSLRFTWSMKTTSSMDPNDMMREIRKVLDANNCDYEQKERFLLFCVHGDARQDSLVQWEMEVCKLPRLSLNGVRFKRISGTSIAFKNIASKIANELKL
Described as above. The class given is binding. The note with it: MARK1; 1 uM. As to the method: as §1, §2, §3, §4

The target of experiment [5] is T5, kinases of the scanMAX Kinase assay panel (Homo sapiens, UniProt P53779).
T5 construct: purchased DiscoverX Co. (contract measurement) scanMAX Kinase assay panel
T5 sequence (P53779 whole entry): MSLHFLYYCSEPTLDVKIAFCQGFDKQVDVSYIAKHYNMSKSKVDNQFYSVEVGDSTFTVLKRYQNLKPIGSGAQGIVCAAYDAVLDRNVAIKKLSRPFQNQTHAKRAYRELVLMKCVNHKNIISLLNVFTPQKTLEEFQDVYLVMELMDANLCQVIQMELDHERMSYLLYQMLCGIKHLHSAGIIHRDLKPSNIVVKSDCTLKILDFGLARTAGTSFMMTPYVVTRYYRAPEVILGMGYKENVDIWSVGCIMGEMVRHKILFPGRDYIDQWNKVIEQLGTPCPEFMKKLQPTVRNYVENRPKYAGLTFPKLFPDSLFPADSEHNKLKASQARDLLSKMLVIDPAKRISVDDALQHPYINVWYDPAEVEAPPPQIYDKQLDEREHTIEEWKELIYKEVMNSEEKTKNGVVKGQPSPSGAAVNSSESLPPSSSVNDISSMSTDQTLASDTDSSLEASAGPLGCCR
Described as above. The note with it: JNK3; 1 uM. The class given is binding. As to the method: as §1, §2, §3, §4

Experiment [6] addresses T6, kinases of the scanMAX Kinase assay panel (Homo sapiens, UniProt Q15569).
T6 construct: purchased DiscoverX Co. (contract measurement) scanMAX Kinase assay panel
The description is as above. The class given is binding. The note with it: kinase TESK1; 1 uM in DMSO. As to the method: as §1, §2, §3, §4

The target in experiment [7] is T7, kinases of the scanMAX Kinase assay panel (Homo sapiens, UniProt Q16620).
T7 construct: purchased DiscoverX Co. (contract measurement) scanMAX Kinase assay panel
T7 sequence (Q16620 32-822): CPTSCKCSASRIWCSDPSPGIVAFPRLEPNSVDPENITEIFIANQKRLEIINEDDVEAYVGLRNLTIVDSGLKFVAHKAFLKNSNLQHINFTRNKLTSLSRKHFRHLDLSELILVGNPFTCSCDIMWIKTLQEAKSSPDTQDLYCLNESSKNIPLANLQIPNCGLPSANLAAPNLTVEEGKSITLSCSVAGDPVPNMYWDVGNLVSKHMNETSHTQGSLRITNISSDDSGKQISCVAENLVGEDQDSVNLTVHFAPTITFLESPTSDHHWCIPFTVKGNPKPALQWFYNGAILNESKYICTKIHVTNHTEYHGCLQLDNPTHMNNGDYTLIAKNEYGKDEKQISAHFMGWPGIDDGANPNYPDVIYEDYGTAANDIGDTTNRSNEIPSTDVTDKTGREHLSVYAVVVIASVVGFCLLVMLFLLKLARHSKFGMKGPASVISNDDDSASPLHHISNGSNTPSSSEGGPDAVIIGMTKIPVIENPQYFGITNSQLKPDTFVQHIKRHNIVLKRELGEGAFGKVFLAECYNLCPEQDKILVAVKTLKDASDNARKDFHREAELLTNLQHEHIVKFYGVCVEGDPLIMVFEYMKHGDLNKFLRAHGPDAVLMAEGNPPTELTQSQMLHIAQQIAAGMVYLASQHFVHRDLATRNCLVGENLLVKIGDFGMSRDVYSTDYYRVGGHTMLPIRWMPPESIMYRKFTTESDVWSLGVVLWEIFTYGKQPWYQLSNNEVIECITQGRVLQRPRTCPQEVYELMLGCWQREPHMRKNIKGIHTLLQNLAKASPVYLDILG
Described as above. The class given is binding. The note with it: kinase TRKB; 1 uM in DMSO. As to the method:
as §1, §2, §3, §4

In experiment [8] the target is T8, kinases of the scanMAX Kinase assay panel (Homo sapiens, UniProt Q9UEE5).
T8 construct: purchased DiscoverX Co. (contract measurement) scanMAX Kinase assay panel
T8 sequence (Q9UEE5 1-414): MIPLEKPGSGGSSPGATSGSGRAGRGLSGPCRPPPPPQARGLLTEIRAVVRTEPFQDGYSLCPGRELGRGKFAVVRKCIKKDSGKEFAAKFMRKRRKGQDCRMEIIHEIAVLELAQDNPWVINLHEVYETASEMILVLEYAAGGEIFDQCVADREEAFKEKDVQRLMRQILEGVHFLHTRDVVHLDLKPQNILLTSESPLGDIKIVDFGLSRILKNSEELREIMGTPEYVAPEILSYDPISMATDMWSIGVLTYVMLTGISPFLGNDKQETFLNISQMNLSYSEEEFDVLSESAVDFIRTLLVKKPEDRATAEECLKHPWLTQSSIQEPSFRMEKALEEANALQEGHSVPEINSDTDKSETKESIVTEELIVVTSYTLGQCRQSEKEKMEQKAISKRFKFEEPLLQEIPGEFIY
Described as above. The experiment is classed as binding. The note with it: DRAK1; 1 uM. As to the method:
as §1, §2, §3, §4

For experiment [9], the target named is T9, kinases of the scanMAX Kinase assay panel (Homo sapiens, UniProt Q6P2M8).
T9 construct: purchased DiscoverX Co. (contract measurement) scanMAX Kinase assay panel
T9 sequence (Q6P2M8 whole entry): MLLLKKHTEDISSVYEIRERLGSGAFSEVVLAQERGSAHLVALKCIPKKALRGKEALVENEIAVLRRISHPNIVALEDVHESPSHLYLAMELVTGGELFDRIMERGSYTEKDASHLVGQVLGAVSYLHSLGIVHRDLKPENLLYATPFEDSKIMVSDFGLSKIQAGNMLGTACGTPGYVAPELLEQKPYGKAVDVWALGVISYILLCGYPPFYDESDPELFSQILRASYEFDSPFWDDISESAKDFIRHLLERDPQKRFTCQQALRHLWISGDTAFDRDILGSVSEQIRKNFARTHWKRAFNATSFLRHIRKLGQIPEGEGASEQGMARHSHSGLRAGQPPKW
The experiment is described as above. The experiment is classed as binding. The note with it: CAMK1B; 1 uM. As to the method:
as §1, §2, §3, §4

The target in experiment [10] is T10, recombinant LRRK2 kinase (Homo sapiens, UniProt Q5S007).
T10 construct: purchased Signal Chem, Richmond, BC, Canada
T10 sequence (Q5S007 whole entry): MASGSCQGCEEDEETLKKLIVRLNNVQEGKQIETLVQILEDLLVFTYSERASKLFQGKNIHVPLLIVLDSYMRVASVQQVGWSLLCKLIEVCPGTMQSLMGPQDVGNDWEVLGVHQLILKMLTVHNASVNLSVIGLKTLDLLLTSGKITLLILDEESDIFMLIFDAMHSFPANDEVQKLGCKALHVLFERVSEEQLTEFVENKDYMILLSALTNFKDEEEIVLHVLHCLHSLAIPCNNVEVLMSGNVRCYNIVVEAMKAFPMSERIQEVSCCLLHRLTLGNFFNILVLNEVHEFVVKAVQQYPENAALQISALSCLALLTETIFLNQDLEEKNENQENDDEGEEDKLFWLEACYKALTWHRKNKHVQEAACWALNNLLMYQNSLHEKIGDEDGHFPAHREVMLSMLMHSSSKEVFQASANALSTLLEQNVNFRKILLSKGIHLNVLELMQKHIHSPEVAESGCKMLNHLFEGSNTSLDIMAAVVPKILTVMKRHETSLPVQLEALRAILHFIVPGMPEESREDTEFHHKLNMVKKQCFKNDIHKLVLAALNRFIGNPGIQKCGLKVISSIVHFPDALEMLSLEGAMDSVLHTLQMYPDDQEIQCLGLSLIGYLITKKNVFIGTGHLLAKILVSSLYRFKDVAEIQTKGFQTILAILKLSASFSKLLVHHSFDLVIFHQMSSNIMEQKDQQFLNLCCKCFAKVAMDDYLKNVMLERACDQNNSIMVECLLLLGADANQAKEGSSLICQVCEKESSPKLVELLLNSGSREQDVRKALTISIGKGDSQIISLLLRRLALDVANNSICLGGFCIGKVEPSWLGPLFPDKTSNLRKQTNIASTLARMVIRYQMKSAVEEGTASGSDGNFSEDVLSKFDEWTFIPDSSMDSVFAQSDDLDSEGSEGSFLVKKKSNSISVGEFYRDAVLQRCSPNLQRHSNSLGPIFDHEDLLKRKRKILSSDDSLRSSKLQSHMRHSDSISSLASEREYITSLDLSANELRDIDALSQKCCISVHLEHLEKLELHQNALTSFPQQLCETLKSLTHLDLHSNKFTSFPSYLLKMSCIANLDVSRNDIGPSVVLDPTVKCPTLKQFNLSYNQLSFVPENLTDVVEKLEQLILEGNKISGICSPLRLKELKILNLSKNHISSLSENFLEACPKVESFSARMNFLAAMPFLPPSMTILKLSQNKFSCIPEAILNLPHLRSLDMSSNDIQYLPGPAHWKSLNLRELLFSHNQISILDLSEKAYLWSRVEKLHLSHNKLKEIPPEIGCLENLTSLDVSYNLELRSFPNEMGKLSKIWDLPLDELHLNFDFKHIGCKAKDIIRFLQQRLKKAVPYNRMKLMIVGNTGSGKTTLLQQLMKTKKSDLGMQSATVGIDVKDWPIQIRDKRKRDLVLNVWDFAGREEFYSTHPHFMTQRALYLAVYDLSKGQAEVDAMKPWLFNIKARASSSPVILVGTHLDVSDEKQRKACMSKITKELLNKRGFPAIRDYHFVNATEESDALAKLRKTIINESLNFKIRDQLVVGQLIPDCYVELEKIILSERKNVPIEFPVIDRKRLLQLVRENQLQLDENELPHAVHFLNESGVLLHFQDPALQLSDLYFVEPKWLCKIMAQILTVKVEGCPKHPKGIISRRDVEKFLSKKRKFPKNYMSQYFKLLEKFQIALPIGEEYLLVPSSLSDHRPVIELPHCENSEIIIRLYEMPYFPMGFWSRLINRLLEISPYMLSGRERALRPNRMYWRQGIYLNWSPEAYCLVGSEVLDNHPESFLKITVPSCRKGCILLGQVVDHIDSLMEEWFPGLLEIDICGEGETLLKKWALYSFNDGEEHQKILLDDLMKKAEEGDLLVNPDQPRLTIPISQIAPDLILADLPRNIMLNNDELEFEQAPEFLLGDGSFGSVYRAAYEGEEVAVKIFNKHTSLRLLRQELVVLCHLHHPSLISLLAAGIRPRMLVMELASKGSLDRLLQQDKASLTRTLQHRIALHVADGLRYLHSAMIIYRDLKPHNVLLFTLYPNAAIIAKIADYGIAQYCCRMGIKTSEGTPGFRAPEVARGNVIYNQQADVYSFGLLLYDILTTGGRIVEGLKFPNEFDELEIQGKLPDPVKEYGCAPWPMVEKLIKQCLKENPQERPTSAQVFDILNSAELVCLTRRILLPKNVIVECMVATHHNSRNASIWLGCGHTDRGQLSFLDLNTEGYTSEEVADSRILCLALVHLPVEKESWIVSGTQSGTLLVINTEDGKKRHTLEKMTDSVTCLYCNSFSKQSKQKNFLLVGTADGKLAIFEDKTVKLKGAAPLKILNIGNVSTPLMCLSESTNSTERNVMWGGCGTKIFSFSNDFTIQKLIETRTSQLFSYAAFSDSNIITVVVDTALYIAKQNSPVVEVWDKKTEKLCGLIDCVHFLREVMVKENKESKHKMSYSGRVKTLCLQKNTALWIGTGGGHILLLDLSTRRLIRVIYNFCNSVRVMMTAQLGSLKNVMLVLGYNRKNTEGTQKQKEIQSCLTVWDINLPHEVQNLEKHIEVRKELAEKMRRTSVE
The experiment in a line: LRRK2 kinase inhibition (Kinase-Glo luminescence). The class given is biochemical. The following applies: IC50 grade; 25 μmol/L ATP, LRRKtide, 30° C. 2 hours; read-out: Enzyme activity LRRK2. As to the method: Upon completion of the reaction, an equal amount of Kinase-Glo (Promega, Madison, Wis.) solution was added thereto, followed by reaction for 40 minutes. A detection solution was added thereto, followed by further reaction at room temperature for 30 minutes. Then, IC50 of kinase was calculated by measuring the amount of luciferase using a microplate ELISA reader (Bio-Tek).
On the technique in general: Kinase-Glo reads ATP consumption through a luciferase reaction.

Among the data in patent publication US11208412B2 (DAEGU-GYEONGBUK MEDICAL INNOVATION FOUNDATION, priority 2017, dated 2021) are remaining binding and IC50 values, retold here.

For the compound `CNc1nc(Nc2ccc(C(=O)N3CCOCC3)cc2OC)nc2[nH]cc(C#N)c12` [Example 1, 2-((2-methoxy-4-(morpholine-4-carbonyl)phenyl)amino)-4-(methylamino)-7H-pyrrolo[2,3-d]pyrimidine-5-carbonitrile], the remaining binding at 1 µM stood at 100% in experiment [1]; 14% in experiment [2]; 78% in experiment [3]; 91% in experiment [4]; 0% in experiment [5]; 100% in experiment [6]. For the same compound, the remaining binding at 1 µM was found to be 61% in experiment [7], 37% in experiment [8] and 45% in experiment [9]. In addition, the IC50 in experiment [10] was under 10 nM.
For the compound `CC1(Nc2nc(Nc3cnn([C@H]4CCN(C5COC5)C[C@@H]4F)c3Cl)nc3[nH]cc(C#N)c23)CC1` [Example 52, 2-((5-chloro-1-((3S,4S)-3-fluoro-1-(oxetane-3-yl)piperidine-4-yl)-1H-pyrazole-4-yl)amino)((1-methylcyclopropyl)amino)-7H-pyrrolo[2,3-d]pyrimidine-5-carbonitrile], the remaining binding at 1 µM in experiment [1] worked out at 53%; in experiment [2], 5.2%; in experiment [3], 9.6%; in [4], 36%; in experiment [5], 0%; in [6] it was 65%. Moreover, the remaining binding at 1 µM in [7] came to 7.5%; in [8] it was 0.3%; in experiment [9], 64%. The IC50 in experiment [10] is under 10 nM.
As to `CCNc1nc(Nc2ccc(C(=O)N3CCC(N4CCOCC4)CC3)cc2OC)nc2[nH]cc(C(F)(F)F)c12` [Example 104, (4-((4-(ethylamino)-5-(trifluoromethyl)-7H-pyrrolo[2,3-d]pyrimidine-2-yl)amino)-3-methoxyphenyl)(4-morpholinopiperidine-1-yl)methanone], the remaining binding at 1 µM in [1] came to 99%; in [2] it was 9.3%; in experiment [3], 90%; in [4], 100%; in experiment [5], 18%; in experiment [6], 100%. Further, the remaining binding at 1 µM was 100% in experiment [7], 49% in experiment [8] and 21% in experiment [9]. Also, the IC50 in experiment [10] is under 10 nM.
